Laboratory results taken from paper PMC6021502, “Cannabigerol Action at Cannabinoid CB1 and CB2 Receptors and at CB1–CB2 Heteroreceptor Complexes” (Frontiers in Pharmacology, 2018).
“Also recorded” adds a separate entry of the source.

Columns and labels:
[1] = system: T1, CB1R and CB2R (CB1–CB2 heteroreceptor complexes); test: Label-free dynamic mass redistribution (DMR) in HEK-293T cells co-expressing both receptors; assay type: cell-based, human
T1 construct: expressed in transfected cells; host or cells: HEK-293T, transient co-transfection (PEI)
Protocol: (§1) HEK-293T cells were grown in DMEM medium (Gibco, Paisley, Scotland, United Kingdom) supplemented with 2 mM L-glutamine, 100 U/mL penicillin/streptomycin, MEM Non-Essential Amino Acids Solution (1/100) and 5% (v/v) heat inactivated Foetal Bovine Serum (FBS) (Invitrogen, Paisley, Scotland, United Kingdom). […] Cells were transiently transfected with the PEI (Polyethylenimine, Sigma, St. Louis, MO, United States) method as previously described ([Medrano et al., 2017]; [Navarro et al., 2018b]) and used for functional assays 48 h later (unless otherwise stated).
Cell mass redistribution induced upon receptor activation was detected by illuminating the underside of a biosensor with polychromatic light and measuring the changes in the wavelength of the reflected monochromatic light. The magnitude of this wavelength shift (in picometers) is directly proportional to the amount of DMR. […] Hereafter, the sensor plate was scanned and a baseline optical signature was recorded for 10 min before adding 10 μL of CBG for 30 min followed by the addition of 10 μL of specific agonists; all test compounds were dissolved in assay buffer. The cell signaling signature was determined using an EnSpire® Multimode Plate Reader (PerkinElmer, Waltham, MA, United States) by a label-free technology. Then, DMR responses were monitored for at least 5,000 s. Results were analyzed using EnSpire Workstation Software v 4.10.

TRPV2 = system: TRPV2; set-up: method as in De Petrocellis et al., 2011; conditions: ref De Petrocellis et al., 2011; read-out: EC50, agonist of TRPV2; cited from earlier work
human CB1 receptor = target: T2, human CB1 receptor (Homo sapiens, UniProt P21554); test: biochemical; assay type: binding
T2 construct: expressed in transfected cells; membranes

CB1R = system: T3, CB1R; test: ERK1/2 phosphorylation in HEK-293T cells; assay type: cell-based, human
T3 construct: expressed in transfected cells; host or cells: HEK-293T, transient transfection (PEI)
Protocol: as §1
(§2) To determine ERK1/2 phosphorylation, 50,000 HEK-293T cells/well were plated in transparent Deltalab 96-well microplates and kept at the incubator for 24 h. 2 to 4 h before the experiment, the medium was substituted by serum-starved DMEM medium. Then, cells were pre-treated at 25°C for 10 min with vehicle or CBG in serum-starved DMEM medium and stimulated for an additional 7 min with the specific agonists. Cells were then washed twice with cold PBS before addition of lysis buffer (20 min treatment). 10 μL of each supernatant were placed in white ProxiPlate 384-well microplates and ERK 1/2 phosphorylation was determined using AlphaScreen®SureFire® kit (Perkin Elmer) following the instructions of the supplier and using an EnSpire® Multimode Plate Reader (PerkinElmer, Waltham, MA, United States).

CB2R = system: T4, CB2R; test: ERK1/2 phosphorylation in HEK-293T cells; assay type: cell-based, human
T4 construct: expressed in transfected cells; host or cells: HEK-293T, transient transfection (PEI)
Protocol: as §1, §2

T2 sequence (P21554 whole entry): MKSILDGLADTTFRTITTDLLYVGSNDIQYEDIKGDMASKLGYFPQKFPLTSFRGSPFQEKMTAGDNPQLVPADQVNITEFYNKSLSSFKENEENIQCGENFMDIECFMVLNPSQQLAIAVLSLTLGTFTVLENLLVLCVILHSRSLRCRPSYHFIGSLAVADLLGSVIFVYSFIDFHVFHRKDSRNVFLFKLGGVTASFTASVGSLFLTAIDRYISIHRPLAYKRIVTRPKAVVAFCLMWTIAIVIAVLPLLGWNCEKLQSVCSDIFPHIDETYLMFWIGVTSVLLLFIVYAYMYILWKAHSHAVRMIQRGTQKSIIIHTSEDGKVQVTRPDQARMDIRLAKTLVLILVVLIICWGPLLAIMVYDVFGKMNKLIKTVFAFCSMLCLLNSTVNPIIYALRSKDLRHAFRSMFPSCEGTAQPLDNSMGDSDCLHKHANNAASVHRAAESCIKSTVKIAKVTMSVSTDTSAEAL

In the case of `CCCCCc1cc(O)c(C/C=C(\C)CCC=C(C)C)c(O)c1` [CBG, cannabigerol], the “Effect on agonist actions on DMR read-outs” value ([1]; 100 nM CBG pretreatment, cells co-expressing CB1R and CB2R) is given as “negative modulation of the ACEA effect on ERK1/2 phosphorylation and DMR, and of the AEA effect on DMR read-outs”, the DMR signal ([1]; CBG alone, dose-effect, cells expressing CB1R and CB2R) is given as “additive” and the EC50 (TRPV2) is given as 1.7 µM. For the same compound, the “Displacement of [3H]-WIN-55,212-2 from CB1R” value (human CB1 receptor) was “not able to displace the radioligand; also recorded: unable to compete”, the Ki (human CB1 receptor) was greater than 30 µM and the “Effect on agonist-induced MAPK phosphorylation” value (CB1R; 100 nM or 1 μM CBG, 100 nM AEA or ACEA, CB1R) was “unable to modify”. The “Effect on MAPK phosphorylation” value (CB1R; CBG alone, 1 nM to 10 μM, CB1R-expressing cells) was “no significant action”, the “Effect on AEA and JWH133 effects on ERK1/2 phosphorylation” value (CB2R; 100 nM or 1 μM CBG pretreatment, 100 nM AEA or JWH133, CB2R) was “reduced the effects of AEA and JWH133” and the “Activation of the MAP kinase pathway” value (CB2R; CBG alone, 1 nM to 10 μM, CB2R-expressing cells) was “notable”.
